The subject of this experiment is L1210 leukemia ip in BDF1 mice, survival T/C. Kind of experiment: NCI In Vivo Anticancer Drug Screen. Data for tumor model L1210 Leukemia (intraperitoneal) in B6D2F1 (BDF1) mice. The conditions noted are these: endpoint: mean survival time, higher = longer survival. The essentials: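 Ratio derived from survival: compound-dosed mice over vehicle-dosed mice, all bearing a transplantable tumor.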

[1] abbreviates: dose: 100.0 mg/kg/injection, schedule: Q04DX003 (ip), vehicle: saline.
[2] abbreviates: dose: 200.0 mg/kg/injection, schedule: Q04DX003 (ip), vehicle: saline.
The mark [3] stands for this setting: dose: 400.0 mg/kg/injection, schedule: Q04DX003 (ip), vehicle: saline.
The mark [4] stands for this setting: dose: 100.0 mg/kg/injection, schedule: Q01DX001 (ip), vehicle: saline.
Setting [5] is: dose: 100.0 mg/kg/injection, schedule: Q01DX009 (ip), vehicle: saline.
Setting [6] is: dose: 200.0 mg/kg/injection, schedule: Q01DX001 (ip), vehicle: saline.
The mark [7] stands for this setting: dose: 200.0 mg/kg/injection, schedule: Q01DX009 (ip), vehicle: saline.
[8] abbreviates: dose: 400.0 mg/kg/injection, schedule: Q01DX001 (ip), vehicle: saline.
Setting [9] is: dose: 400.0 mg/kg/injection, schedule: Q01DX009 (ip), vehicle: saline.
The mark [10] stands for this setting: dose: 100.0 mg/kg/injection, schedule: Q01DX009 (ip), vehicle: Klucel (hydroxypropylcellulose) (HPC).
Setting [11] is: dose: 200.0 mg/kg/injection, schedule: Q01DX009 (ip), vehicle: Klucel (hydroxypropylcellulose) (HPC).

This is an account of results in PubChem BioAssay AID248 (DTP/NCI, 2004).

Values joined by “and” are separate entries in the source; they are usually repeats but may differ in a detail not shown here. Equal entries are not always repeated. Toxic doses and inconclusive results are not listed.

`CC1(C)N=C(N)N=C(N)N1c1ccc(CC(C(=O)Nc2ccc(S(=O)(=O)F)cc2)c2ccccc2)cc1` (centres undefined): the T/C is 97 % of control (dose: 75.0 mg/kg/injection, schedule: Q01DX001 (ip), vehicle: Klucel (hydroxypropylcellulose) (HPC)); 94 % of control (dose: 150.0 mg/kg/injection, schedule: Q01DX001 (ip), vehicle: Klucel (hydroxypropylcellulose) (HPC)); 90 % of control (dose: 300.0 mg/kg/injection, schedule: Q01DX001 (ip), vehicle: Klucel (hydroxypropylcellulose) (HPC)).

Turning to `c1ccc(C2=Nc3ccccc3N=C3CCCC32)cc1` (centres undefined), the T/C reads like this: (dose: 100.0 mg/kg/injection, schedule: Q01DX001 (ip), vehicle: carboxymethylcellulose (CMC)) 103 % of control; (dose: 200.0 mg/kg/injection, schedule: Q01DX001 (ip), vehicle: carboxymethylcellulose (CMC)) 100 % of control; (dose: 400.0 mg/kg/injection, schedule: Q01DX001 (ip), vehicle: carboxymethylcellulose (CMC)) 97 % of control.

Turning to `CCN(CC)C(=O)c1ccccc1`, the T/C under setting [1] was 103 % of control, the T/C under setting [2] was 110 % of control and the T/C under setting [3] was 105 % of control.

Take `COc1cc(C)oc(=O)c1`: the T/C by setting is: (dose: 100.0 mg/kg/injection, schedule: Q01DX001 (ip), vehicle: Klucel (hydroxypropylcellulose) (HPC)) 110 % of control; under setting [4], 98 % of control; under setting [5], 93 % of control and 101 % of control; under setting [1], 97 % of control; (dose: 200.0 mg/kg/injection, schedule: Q01DX001 (ip), vehicle: Klucel (hydroxypropylcellulose) (HPC)) 104 % of control; under setting [6], 98 % of control. Moreover, the T/C is, setting by setting: under setting [7], 93 % of control and 104 % of control; under setting [2], 93 % of control; (dose: 400.0 mg/kg/injection, schedule: Q01DX001 (ip), vehicle: Klucel (hydroxypropylcellulose) (HPC)) 106 % of control; under setting [8], 102 % of control; (dose: 400.0 mg/kg/injection, schedule: Q01DX009 (ip), vehicle: saline with Tween-80) 108 % of control; under setting [9], 93 % of control. Also, the T/C under setting [3] was 92 % of control.

With `CN(C)CCCN1c2cc(Cl)ccc2Sc2ccc(Cl)cc21`, the T/C is 122 % of control (dose: 100.0 mg/kg/injection, schedule: Q04DX002 (ip), vehicle: Klucel (hydroxypropylcellulose) (HPC)) and 108 % of control (dose: 200.0 mg/kg/injection, schedule: Q04DX002 (ip), vehicle: Klucel (hydroxypropylcellulose) (HPC)).

Regarding `CCN=C(c1ccc(NC(=O)c2ccc(C(=O)Nc3ccc(C(=NCC)N(CC)C(=O)OC)cc3)cc2)cc1)N(CC)C(=O)OC`, the T/C (dose: 1.5 mg/kg/injection, schedule: Q01DX015 (ip), vehicle: methylcellulose (MC)) is 112 % of control and the T/C (dose: 7.5 mg/kg/injection, schedule: Q01DX015 (ip), vehicle: methylcellulose (MC)) is 167 % of control.

For `CC(C)=CCC/C(C)=C\CN=C1C=CC(=O)O1`, the T/C is, setting by setting: (dose: 25.0 mg/kg/injection, schedule: Q01DX009 (ip), vehicle: saline + alcohol) 97 % of control; (dose: 25.0 mg/kg/injection, schedule: Q04DX003 (ip), vehicle: other) 107 % of control; (dose: 50.0 mg/kg/injection, schedule: Q01DX009 (ip), vehicle: saline + alcohol) 90 % of control; (dose: 50.0 mg/kg/injection, schedule: Q04DX003 (ip), vehicle: other) 107 % of control; (dose: 100.0 mg/kg/injection, schedule: Q04DX003 (ip), vehicle: other) 121 % of control; under setting [1], 91 % of control.

Turning to `Cc1cc(=O)[nH]c(N/N=C/c2ccc(N(CCCl)CCCl)cc2)n1`, the T/C by setting is: (dose: 100.0 mg/kg/injection, schedule: Q04DX003 (ip), vehicle: saline with Tween-80) 102 % of control; (dose: 200.0 mg/kg/injection, schedule: Q04DX003 (ip), vehicle: saline with Tween-80) 105 % of control; (dose: 400.0 mg/kg/injection, schedule: Q04DX003 (ip), vehicle: saline with Tween-80) 109 % of control.

In the case of `CC(=O)CCC1CC(=O)OC1(C)C` (centres undefined), the T/C is, setting by setting: under setting [4], 102 % of control and 100 % of control; under setting [5], 104 % of control and 88 % of control; (dose: 100.0 mg/kg/injection, schedule: Q04DX003 (ip), vehicle: acetone) 93 % of control; under setting [6], 102 % of control and 100 % of control; under setting [7], 96 % of control and 88 % of control; (dose: 200.0 mg/kg/injection, schedule: Q04DX003 (ip), vehicle: acetone) 117 % of control. Further, the T/C was 96 % of control and 106 % of control under setting [8]; 98 % of control and 86 % of control under setting [9]; 101 % of control (dose: 400.0 mg/kg/injection, schedule: Q04DX003 (ip), vehicle: acetone).

As for `Cc1cc(C(=O)O)c(C)o1`, the T/C is 96 % of control under setting [10] and 93 % of control under setting [11].

For the compound `CO[C@H](C)[C@](O)(C(=O)OCC1=CCN2CC[C@@H](O)[C@H]12)C(C)C`, the T/C runs as follows: (dose: 65.0 mg/kg/injection, schedule: Q01DX009 (ip), vehicle: saline) 95 % of control and 109 % of control; (dose: 75.0 mg/kg/injection, schedule: Q01DX001 (ip), vehicle: acetone) 106 % of control; under setting [5], 95 % of control and 105 % of control; (dose: 150.0 mg/kg/injection, schedule: Q01DX001 (ip), vehicle: acetone) 103 % of control; (dose: 150.0 mg/kg/injection, schedule: Q01DX009 (ip), vehicle: saline) 94 % of control; (dose: 300.0 mg/kg/injection, schedule: Q01DX001 (ip), vehicle: acetone) 106 % of control.

Take `O=C(O)c1ccccc1C(=O)c1cccc2ccccc12`: the T/C is, setting by setting: (dose: 100.0 mg/kg/injection, schedule: Q04DX002 (ip), vehicle: gum acacia) 102 % of control; (dose: 200.0 mg/kg/injection, schedule: Q04DX002 (ip), vehicle: gum acacia) 104 % of control; (dose: 400.0 mg/kg/injection, schedule: Q04DX002 (ip), vehicle: gum acacia) 95 % of control.

Turning to `CCN(CC)N=Nc1ccccc1-c1nc(N)c2ccccc2n1`, the T/C runs as follows: (dose: 100.0 mg/kg/injection, schedule: Q04DX003 (ip), vehicle: Klucel (hydroxypropylcellulose) (HPC)) 95 % of control; (dose: 200.0 mg/kg/injection, schedule: Q04DX003 (ip), vehicle: Klucel (hydroxypropylcellulose) (HPC)) 98 % of control.

Take `CC(=Nc1cc(C)ccc1C)c1c(O)cc(C)oc1=O`: the T/C under setting [10] is 97 % of control; the T/C under setting [11] was 97 % of control; the T/C (dose: 400.0 mg/kg/injection, schedule: Q01DX009 (ip), vehicle: Klucel (hydroxypropylcellulose) (HPC)) was 103 % of control.

With `CC(Cl)(Cl)[N+](=O)[O-]`, the T/C by setting is: (dose: 100.0 mg/kg/injection, schedule: Q01DX009 (ip), vehicle: saline with Tween-80) 104 % of control; (dose: 200.0 mg/kg/injection, schedule: Q01DX009 (ip), vehicle: saline with Tween-80) 104 % of control.

Turning to `CNc1cc(C(C)C)ccc1C`, the T/C reads like this: (dose: 12.5 mg/kg/injection, schedule: Q01DX009 (ip), vehicle: Klucel (hydroxypropylcellulose) (HPC)) 102 % of control; (dose: 25.0 mg/kg/injection, schedule: Q01DX009 (ip), vehicle: Klucel (hydroxypropylcellulose) (HPC)) 96 % of control; (dose: 50.0 mg/kg/injection, schedule: Q01DX009 (ip), vehicle: Klucel (hydroxypropylcellulose) (HPC)) 113 % of control; (dose: 100.0 mg/kg/injection, schedule: Q01DX009 (sc), vehicle: olive oil, sesame oil, peanut oil) 114 % of control; (dose: 100.0 mg/kg/injection, schedule: Q04DX003 (sc), vehicle: olive oil, sesame oil, peanut oil) 108 % of control; (dose: 200.0 mg/kg/injection, schedule: Q01DX009 (sc), vehicle: olive oil, sesame oil, peanut oil) 105 % of control. The T/C runs as follows: (dose: 200.0 mg/kg/injection, schedule: Q04DX003 (sc), vehicle: olive oil, sesame oil, peanut oil) 105 % of control; (dose: 400.0 mg/kg/injection, schedule: Q01DX009 (sc), vehicle: olive oil, sesame oil, peanut oil) 110 % of control; (dose: 400.0 mg/kg/injection, schedule: Q04DX003 (sc), vehicle: olive oil, sesame oil, peanut oil) 103 % of control.

`CCCCCCCCCCCCCC(CCCCCCCCCCCC)CCCCCCCCCCCC`: the T/C was 92 % of control (dose: 100.0 mg/kg/injection, schedule: Q01DX001 (ip), vehicle: saline with Tween-80); 87 % of control (dose: 200.0 mg/kg/injection, schedule: Q01DX001 (ip), vehicle: saline with Tween-80); 87 % of control (dose: 400.0 mg/kg/injection, schedule: Q01DX001 (ip), vehicle: saline with Tween-80).
